Source: patent US20260069530A1, “METHODS OF TREATING PRIMARY LIVER TUMORS WITH NATURAL KILLER CELLS EXPRESSING A CYTOTOXIC RECEPTOR COMPLEX” (NKARTA, INC., priority 2018, published 2026)

Assays:
NKG2D ligands = test: total NKG2D ligand expression on HCC cell lines, flow cytometry with NKG2D-Fc; assay type: cell-based, human
From the text: (§1) FIGS. 17A-17N relate to expression of total NKG2D ligands and PD-L1 in relation to sorafenib concentration. FIGS. 17A-17F depict flow cytometry data related to changes in total NKG2D ligand expression in the indicated tumor cell lines in response to various concentrations of sorafenib (total expression is based on the use of the NKG2D-Fc fusion, so detection is of any ligand NKG2D could bind). FIGS. 17G-17L depict flow cytometry data related to changes in PD-L1 expression in the indicated tumor cell lines in response to various concentrations of sorafenib. FIGS. 17M and 17N are line graphs that summarize the flow cytometry data.
(§2) FIGS. 18A-18T relate to expression of total NKG2D ligands and PD-L1 in relation to Interferon gamma (IFNg) concentration. FIGS. 18A-18I depict flow cytometry data related to changes in total NKG2D ligand expression in the indicated tumor cell lines in response to various concentrations of IFNg (total expression is based on the use of the NKG2D-Fc fusion, so detection is of any ligand NKG2D could bind). […]
(§3) To investigate a possible mechanism of action regarding the sensitivity of hepatocellular carcinoma cells to sorafenib, the expression of the total population of NKG2D ligands on each cell line was measured in response to various doses of sorafenib. The total population of NKG2D ligands was detected through the use of the NKG2D-Fc chimeric antibody. […]

PD-L1 = PD-L1 expression on HCC cell lines, flow cytometry; assay type: cell-based, human
From the text: as §1, §2, §3

Huh-7 = test: sorafenib dose-response against HCC cell lines; settings: read-out: EC50 (concentration to achieve 50% cytotoxicity); FIG. 7B
SNU-387 cells = test: sorafenib dose-response against HCC cell lines; settings: read-out: EC50 (concentration to achieve 50% cytotoxicity); FIG. 7B
HL60 cells = test: HL60 leukemia cell growth in co-culture with NK cells, with or without HDAC inhibitor; assay type: cell-based; settings: valproic acid added to culture with NK cells expressing the NKG2D CAR (FIG. 35B)
Method: As discussed above, additional agents can be co-administered with engineered NK cells disclosed herein. For example, in several embodiments, histone deacetylase inhibitors are administered with engineered NK cells targeting an NKG2D ligand (or other tumor marker, such as CD123 or CD19). The leukemia cell line was grown alone as a control, co-cultured with NK cells expressing GFP, or co-cultured with NK cells expressing an NKG2D CAR as disclosed herein. By way of non-limiting example, the NKG2D CAR used in this example was NKG2D-OX40-[…]-mbIL15. […] According to additional embodiments, other HDAC inhibitors are used, such as romidepsin (e.g. FR901228), entinostat (e.g., MS-275) phenylbutyrate, belinostat (PDX101), sodium valproate, suberoylanilide hydroxamic acid, or combinations thereof.

Method for HCC cells: NKX101 cells were generated by transduction with a bicistronic virus encoding NKG2D, an intracellular OX40 costimulatory domain, CD33 signaling domain, and membrane-bound IL-15, which supports prolonged cell survival and proliferation. […] Combination with a sub-EC50 concentration of the kinase inhibitor Sorafenib (used here as a non-limiting example of an additional anti-cancer agent), an approved agent for HCC, was tested for additive cytotoxic effect with at low E:T ratios of NKX101 NK cells in vitro at 48 hrs.

CNC(=O)c1cc(Oc2ccc(NC(=O)Nc3ccc(Cl)c(C(F)(F)F)c3)cc2)ccn1 [sorafenib]
change in total NKG2D ligand expression (NKG2D ligands; various doses of sorafenib (FIG. 17M)): does not appear to have a substantial impact on the NKG2D ligand expression | change in PD-L1 expression (PD-L1; 10 micromolar sorafenib (FIG. 17N)): many of the cell lines show an increase in PD-L1 expression | cytotoxic effect of combination (HCC cells): additive effect | EC50 (Huh-7): 7.96 µM | EC50 (SNU-387 cells): 29.4 µM

CCCC(CCC)C(=O)O [valproic acid]
HL60 cell growth (HL60 cells): synergistically interacted with the NK cells expressing the NKG2D CAR dramatically suppress HL-60 cell growth

interferon gamma: inflammatory cytokine secreted by NK cells once activated
change in total NKG2D ligand expression (NKG2D ligands; various concentrations of interferon gamma, nine HCC lines (FIG. 18S)): there does not appear to be a clear impact of interferon gamma on the expression of the total pool of NKG2D ligands | change in PD-L1 expression (PD-L1; higher doses of interferon gamma (FIG. 18T)): several cell lines seem to show a trend towards increasing PD-L1 expression with the higher doses of interferon gamma
